One data set concerns the target T1, Bcl-XL (Homo sapiens, UniProt Q07817, S2L).
T1 construct: with the C-terminus truncated; His6; made in house; host or cells: Escherichia coli BL21 (pLys)
The data set can be described thus: Fluorescence anisotropy binding and competition binding assay. The note with it: competition binding assay: BakF-BH3 2E-8 M, competitor peptide 2E-7 M, Bcl-XL 2E-8 M to 1E-6 M; 45 min, 30°C; read-out: Weighted mean Kd. The protocol: Fluorescence Anisotropy was monitored with a Polarion Instrument (Tecan, Austria): excitation wavelength = 485 nm, emission wavelength = 535 nm. […] Anisotropy values were studied at a fixed concentration of fluoresceinated Bak BH3 molecule (2E-8 M), a fixed concentration of peptide inhibitors (2E-7 M) and increasing concentrations of Bel-XL (from 2E-8 M to 1E-6 M). Experiments were performed in 96-wells black non-binding plates (Corning), the experimental volume was always 200 µl / well. Reagents were mixed at room temperature and maintained at a constant temperature (30°C) during the measurements. Anisotropy measurements were performed at different times of incubation to assess the stability of the reactions. […]
For simple binding experiments we evaluated the Kd using a nonlinear regression analysis [NLIN SAS] to fit the Lundblad equation [38]. […]
We calculated the expected Anisotropy value solving a third degree equation obtained extending the simple binding equation to a competitive binding inhibition assay. […]
Point estimates of each equilibrium constant were evaluated using meta-analytical tools weighting each experimental result for its estimated variance. […]
Fluorescence Anisotropy (FA) is a quantitative technique to analyze the interaction of a smaller fluorescent molecule with a larger non fluorescent molecule. […]
Background: Fluorescence polarisation rises when a labelled molecule tumbles more slowly, as on binding a larger partner.

The nature of data set [1]: Circular dichroism, relative content of secondary structure elements. It counts as physicochemical. The following applies: CDSSTR deconvolution. More on the design: key to α-Helix / β-Strands / β-Turns / Random: relative content as fraction, from CDSSTR deconvolution. The protocol:
Circular dichroism (CD) spectra in the far-UV region (190-260 nm) were collected on a Jasco J-715 spectropolarimeter using a 0.1 cm path-length cuvette. Temperature was kept at 25°C by a Peltier device. Peptide concentration was determined from the absorption of the aromatic residues at 280 nm.
Peptides solutions: Bim-BH3Y and Bim-BH3YA2Aib were suspended in water and potassium hydroxide was added up to complete solubilization. 072RB was dissolved in water. Concentration of stock solutions was about 0.1 mg/ml. For circular dichroism measurements, stock solutions were diluted in 10 mM potassium phosphate buffer, pH 7.
The relative content of secondary structure elements was calculated with the deconvolution program CDSSTR [31] (Table 2). […] 072RB has the highest helical content in the set examined here (0.30 α-helix percent).

Data set [2] is described as follows: Peptides stability in medium with 10% FBS or in 100% FBS (HPLC-MS). In kind it is in vitro ADME. The following applies: medium (RPMI 1640) with 10% FBS, 37°C, 32 µM; calculated by linear regression. On the procedure: Compounds were added to the medium solution of serum 10% or 100% FBS at the final concentration of 32 µM. Several extraction mixtures were attempted: MeOH; MeOH with 0,1% trifluoroacetic acid (TFA); (H2O: MeOH) 1:1, 1:4, 4;1. A perchloric acid (PCA) protein precipitation protocol was also tried. […] In both cases ice-cold methanol was added to the peptide solution. The mixture was centrifuged and the resulting supernatant was then added with ice-cold methanol (alone or containing 0,1% TFA) at a 1:1 final ratio and this procedure was repeated twice. Before extraction peptides were incubated in 10% FBS or 100% FBS at 37°C and, at different incubation times (0', 6, 24 and 48 hours), a sample of 50 µl was collected to be analyzed by HPLC-MS.

Setting [3] is: relative content, 10 mM potassium phosphate buffer, pH 7, 25°C.

Where a SMILES comes first, the peptide text is derived from it. [ ]: non-standard residue; d: D form. Aib = CC(C)(N)C(=O)O

By Kd is commonly meant the constant that tells how readily two partners part at equilibrium.

T1 sequence (Q07817 1-212 S2L): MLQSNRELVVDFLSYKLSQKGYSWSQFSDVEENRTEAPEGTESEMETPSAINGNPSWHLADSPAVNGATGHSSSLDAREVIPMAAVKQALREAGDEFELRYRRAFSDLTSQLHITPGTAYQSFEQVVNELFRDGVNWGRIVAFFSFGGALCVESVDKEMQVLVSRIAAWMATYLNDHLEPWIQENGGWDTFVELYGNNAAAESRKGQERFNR

For `CC[C@H](C)[C@H](NC(=O)[C@H](CCCNC(=N)N)NC(=O)[C@H](CCCNC(=N)N)NC(=O)[C@H](CC(C)C)NC(=O)[C@H](CCC(=O)O)NC(=O)[C@H](CCC(N)=O)NC(=O)C(C)(C)NC(=O)[C@@H](NC(=O)[C@H](Cc1ccc(O)cc1)NC(=O)[C@@H](NC(=O)[C@H](CCC(=O)O)NC(=O)[C@@H]1CCCN1C(=O)[C@H](CCCNC(=N)N)NC(=O)[C@H](CCSC)NC(=O)[C@@H](N)CC(=O)O)[C@@H](C)CC)[C@@H](C)CC)C(=O)NCC(=O)N[C@@H](CC(=O)O)C(=O)N[C@@H](C)C(=O)N[C@@H](Cc1ccccc1)C(=O)N[C@@H](CC(N)=O)C(=O)NC(C)(C)C(=O)N[C@@H](Cc1ccc(O)cc1)C(N)=O` [Bim-BH3YA2Aib] (H-DMRPEIYI[Aib]QELRRIGDAFN[Aib]Y-NH2; N-terminus and C-terminus assumed), the Kd on Bcl-XL was found to be 0.012 µM. Also, the “relative content of helices” value in data set [1] is 0.15 α-helix percent. Further, in data set [1] (setting [3]), the Random was found to be 0.56, the α-Helix came out at 0.15, the β-Strands stood at 0.14 and the β-Turns is on record as 0.15. For the same compound, in data set [2], the half-life was 99,0 h.
